In patent US8241846B1, “Hedgehog pathway modulation and uses thereof for treating, preventing and/or diagnosing cancer” (Institut de Recherches Cliniques de Montreal, priority 2008, dated 2012):

System: GCP purified from post-natal day 4 rat cerebellum
Assay: Ki-67 proliferation of electroporated GCP overexpressing BOC, with Shh and Smo inhibitor
Assay type: cell-based
Details: 10 nM Shh plus SANT-1
Procedure: GCP purified from post-natal day 4 rat cerebellum were co-electroporated with either a combination of BOC with a red fluorescence protein expressing plasmids (BOC) or with a control empty plasmid with a red fluorescence protein expressing plasmid (control). Proliferation was evaluated by measuring the percentage of Ki-67 positive cells among electroporated cells in absence or in presence of sonic hedgehog (Shh) and also in presence of Shh in combination with an inhibitor of Smo (SANT-1);
GCP purified from post-natal day 4 rat cerebellum were co-electroporated with either a combination of a plasmid containing a nucleic acid encoding murine BOC with a red fluorescent protein (RFP)-expressing plasmids (BOC) (both genes under the control of the chicken beta-actin promoter) or with a control empty plasmid with a red fluorescent protein-expressing plasmid (control). Proliferation was evaluated by measuring the percentage of Ki-67-positive cells among electroporated cells in the presence or absence of Shh. In addition, the role of the Hh signalling protein Smoothened (Smo) was tested using an inhibitor of Smo (SANT-1) in combination with Shh.

Cc1nn(-c2ccccc2)c(C)c1/C=N/N1CCN(Cc2ccccc2)CC1 [SANT-1] was tested. Which “effect on BOC-mediated increase in percentage of Ki-67-positive cells” value did it give?
Its value is “prevents this increase”.
